Experimental data published in patent publication US20260293898A1 (priority 2023, published 2026).

How the values were obtained:
Plasmopara viticola = Plasmopara viticola / grape / leaf disc preventative; format: in vivo; settings: 200 ppm, grape vine leaf disks, inoculated 1 day after application, 6-8 days after application, compared to untreated control
Pythium ultimum = Pythium ultimum / liquid culture (seedling damping off); format: cell-based; settings: Globisporangium ultimum, read-out: control of Pythium ultimum
Phytophthora infestans = format: in vivo; settings: 200 ppm; tomato leaf disks, preventative, inoculated 1 day after application; 5-7 days after application; compared to untreated control

| Structure (SMILES) | control of Plasmopara viticola (Plasmopara viticola) | inhibition of growth at 20 ppm (Pythium ultimum) [%] | control of Phytophthora infestans (Phytophthora infestans) |
| --- | --- | --- | --- |
| COC(=O)Nc1ccc(-c2cnc3ccc(C(=O)N(C)c4ccc(F)c(OC)c4)cn23)cn1 [X.01, methyl N-[5-[6-[(4-fluoro-3-methoxy-phenyl)-methyl-carbamoyl]imidazo[1,2-a]pyridin-3-yl]-2-pyridyl]carbamate] | at least 80% | ≥ 80 |  |
| COC(=O)Nc1ccc(-c2cnc3c(C)cc(C(=O)N(C)c4ccc(F)c(OC)c4)cn23)cn1 [X.02, methyl N-[5-[6-[(4-fluoro-3-methoxy-phenyl)-methyl-carbamoyl]-8-methyl-imidazo[1,2-a]pyridin-3-yl]-2-pyridyl]carbamate] | at least 80% | ≥ 80 |  |
| COCN(C(=O)c1cc(C)c2ncc(-c3ccc(NC(=O)OC)nc3)n2c1)c1ccc(F)c(OC)c1 [X.03, methyl N-[5-[6-[(4-fluoro-3-methoxy-phenyl)-(methoxymethyl)carbamoyl]-8-methyl-imidazo[1,2-a]pyridin-3-yl]-2-pyridyl]carbamate] | at least 80% | ≥ 80 |  |
| COCN(C(=O)c1ccc2ncc(-c3ccc(NC(=O)OC)nc3)n2c1)c1ccc(F)c(OC)c1 [X.04, methyl N-[5-[6-[(4-fluoro-3-methoxy-phenyl)-(methoxymethyl)carbamoyl]imidazo[1,2-a]pyridin-3-yl]-2-pyridyl]carbamate] | at least 80% | ≥ 80 |  |
| COC(=O)Nc1ccc(-c2cnc3ccc(C(=O)N(C)c4ccc(F)c(OC)c4)cn23)cc1 [X.05, methyl N-[4-[6-[(4-fluoro-3-methoxy-phenyl)-methyl-carbamoyl]imidazo[1,2-a]pyridin-3-yl]phenyl]carbamate] | at least 80% | ≥ 80 |  |
| COc1cc(N(C)C(=O)c2ccc3ncc(-c4ccc(NC(=O)C5CC5)nc4)n3c2)ccc1F [X.06, 3-[6-(cyclopropanecarbonylamino)-3-pyridyl]-N-(4-fluoro-3-methoxy-phenyl)-N-methyl-imidazo[1,2-a]pyridine-6-carboxamide] | at least 80% | ≥ 80 | at least 80% |
| COC(=O)Nc1ccc(-c2cnc3ccc(C(=O)N(C)c4ccc(F)cc4)cn23)cc1 [X.07, methyl N-[4-[6-[(4-fluorophenyl)-methyl-carbamoyl]imidazo[1,2-a]pyridin-3-yl]phenyl]carbamate] | at least 80% | ≥ 80 |  |
| COC(=O)Nc1ccc(-c2cnc3c(C)cc(C(=O)N(C)c4ccc(Cl)cc4)cn23)cc1 [X.08, methyl N-[4-[6-[(4-chlorophenyl)-methyl-carbamoyl]-8-methyl-imidazo[1,2-a]pyridin-3-yl]phenyl]carbamate] | at least 80% | ≥ 80 |  |
| COC(=O)Nc1ccc(-c2cnc3ccc(C(=O)N(C)c4ccc(F)c(C)c4)cn23)cn1 [X.09, methyl N-[5-[6-[(4-fluoro-3-methyl-phenyl)-methyl-carbamoyl]imidazo[1,2-a]pyridin-3-yl]-2-pyridyl]carbamate] | at least 80% | ≥ 80 |  |
| COC(=O)Nc1ccc(-c2cnc3ccc(C(=O)N(C)c4ccc(C#N)c(OC)c4)cn23)cn1 [X.10, methyl N-[5-[6-[(4-cyano-3-methoxy-phenyl)-methyl-carbamoyl]imidazo[1,2-a]pyridin-3-yl]-2-pyridyl]carbamate] | at least 80% | ≥ 80 |  |
| COC(=O)Nc1ccc(-c2cnc3ccc(C(=O)N(C)c4ccc(Cl)c(OC)c4)cn23)cn1 [X.11, methyl N-[5-[6-[(4-chloro-3-methoxy-phenyl)-methyl-carbamoyl]imidazo[1,2-a]pyridin-3-yl]-2-pyridyl]carbamate] | at least 80% | ≥ 80 |  |
| COC(=O)Nc1ccc(-c2cnc3c(C)cc(C(=O)N(C)c4ccc(F)cc4)cn23)cn1 [X.12, methyl N-[5-[6-[(4-fluorophenyl)-methyl-carbamoyl]-8-methyl-imidazo[1,2-a]pyridin-3-yl]-2-pyridyl]carbamate] | at least 80% | ≥ 80 |  |
| COC(=O)Nc1ccc(-c2cnc3cc(C)c(C(=O)N(C)c4ccc(F)cc4)cn23)cn1 [X.13, methyl N-[5-[6-[(4-fluorophenyl)-methyl-carbamoyl]-7-methyl-imidazo[1,2-a]pyridin-3-yl]-2-pyridyl]carbamate] | at least 80% | ≥ 80 |  |
| COC(=O)Nc1ccc(-c2cnc3ccc(C(=O)N(CC#N)c4ccc(F)c(OC)c4)cn23)cn1 [X.14, methyl N-[5-[6-[cyanomethyl-(4-fluoro-3-methoxy-phenyl)carbamoyl]imidazo[1,2-a]pyridin-3-yl]-2-pyridyl]carbamate] | at least 80% | ≥ 80 |  |
| COC(=O)Nc1ccc(-c2cnc3ccc(C(=O)N(CC#N)c4ccc(Cl)c(OC)c4)cn23)cn1 [X.15, methyl N-[5-[6-[(4-chloro-3-methoxy-phenyl)-(cyanomethyl)carbamoyl]imidazo[1,2-a]pyridin-3-yl]-2-pyridyl]carbamate] | at least 80% | ≥ 80 |  |
| COC(=O)Nc1ccc(-c2cnc3ccc(C(=O)N(CS(C)(=O)=O)c4ccc(F)c(OC)c4)cn23)cn1 [X.16, methyl N-[5-[6-[(4-fluoro-3-methoxy-phenyl)-(methylsulfonylmethyl)carbamoyl]imidazo[1,2-a]pyridin-3-yl]-2-pyridyl]carbamate] |  | ≥ 80 |  |
| CONC(=O)Nc1ccc(-c2cnc3ccc(C(=O)N(C)c4ccc(F)c(OC)c4)cn23)cn1 [X.17] |  | ≥ 80 |  |
| COC(=O)Nc1ccc(-c2cnc3c(NC(C)=O)cc(C(=O)N(C)c4ccc(F)cc4)cn23)cn1 [X.18, methyl N-[5-[8-acetamido-6-[(4-fluorophenyl)-methyl-carbamoyl]imidazo[1,2-a]pyridin-3-yl]-2-pyridyl]carbamate] | at least 80% | ≥ 80 |  |
| CCN(C(=O)c1ccc2ncc(-c3ccc(NC(=O)OC)nc3)n2c1)c1ccc(F)cc1 [X.19, methyl N-[5-[6-[ethyl-(4-fluorophenyl)carbamoyl]imidazo[1,2-a]pyridin-3-yl]-2-pyridyl]carbamate] | at least 80% | ≥ 80 |  |
| COC(=O)Nc1ccc(-c2cnc3c(NC(C)=O)cc(C(=O)N(C)c4ccc(F)c(OC)c4)cn23)cn1 [X.20, methyl N-[5-[8-acetamido-6-[(4-fluoro-3-methoxy-phenyl)-methyl-carbamoyl]imidazo[1,2-a]pyridin-3-yl]-2-pyridyl]carbamate] | at least 80% | ≥ 80 |  |
| COCc1cc(C(=O)N(C)c2ccc(F)c(OC)c2)cn2c(-c3ccc(NC(=O)OC)nc3)cnc12 [X.21, methyl N-[5-[6-[(4-fluoro-3-methoxy-phenyl)-methyl-carbamoyl]-8-(methoxymethyl)imidazo[1,2-a]pyridin-3-yl]-2-pyridyl]carbamate] | at least 80% | ≥ 80 | at least 80% |
| COC(=O)Nc1ccc(-c2cnc3c(C)cc(C(=O)N(C)c4ccnc(OC)c4)cn23)cn1 [X.22, methyl N-[5-[6-[(2-methoxy-4-pyridyl)-methyl-carbamoyl]-8-methyl-imidazo[1,2-a]pyridin-3-yl]-2-pyridyl]carbamate] | at least 80% | ≥ 80 | at least 80% |
| COC(=O)Nc1ccc(-c2cnc3c(C)cc(C(=O)N(C)c4ccc(C#N)c(OC)c4)cn23)cn1 [X.23, methyl N-[5-[6-[(4-cyano-3-methoxy-phenyl)-methyl-carbamoyl]-8-methyl-imidazo[1,2-a]pyridin-3-yl]-2-pyridyl]carbamate] | at least 80% | ≥ 80 | at least 80% |
